The text below walks through data of ChEMBL document CHEMBL1909046, “DrugMatrix in vitro pharmacology data”.

Sequence of Vasopressin V1a receptor (P37288 whole entry): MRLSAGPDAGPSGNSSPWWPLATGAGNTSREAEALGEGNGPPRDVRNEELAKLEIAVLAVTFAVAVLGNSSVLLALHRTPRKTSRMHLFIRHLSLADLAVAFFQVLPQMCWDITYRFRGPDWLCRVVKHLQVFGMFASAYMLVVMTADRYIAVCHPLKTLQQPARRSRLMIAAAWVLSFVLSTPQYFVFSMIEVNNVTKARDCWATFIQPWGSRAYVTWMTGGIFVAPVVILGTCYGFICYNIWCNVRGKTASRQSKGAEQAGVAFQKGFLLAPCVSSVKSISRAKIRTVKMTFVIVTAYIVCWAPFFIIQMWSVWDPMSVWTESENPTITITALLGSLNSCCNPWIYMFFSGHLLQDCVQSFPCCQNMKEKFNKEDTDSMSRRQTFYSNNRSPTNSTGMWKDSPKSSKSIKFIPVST

The first data set addresses Vasopressin V1a receptor (Homo sapiens, UniProt P37288).
Assay: not given
The data set is classed as cell membranes, Membrane. Conditions: hek293.
Take `CC(C)(Oc1ccc(CCNC(=O)c2ccc(Cl)cc2)cc1)C(=O)O` [BEZAFIBRATE]: the IC50 entry is recorded as “Not Active”.
Turning to `CC(C)n1c(/C=C/C(O)CC(O)CC(=O)O)c(-c2ccc(F)cc2)c2ccccc21` (stereo not given) [FLUVASTATIN], the IC50 result is on record as “Not Active”.
As to `Cc1ccccc1N1CCN(CCc2nnc3n2CCCC3)CC1` [DAPIPRAZOLE], the IC50 entry is reported as “Not Active”.
`COCc1c(C(C)C)nc(C(C)C)c(/C=C/[C@@H](O)C[C@@H](O)CC(=O)O)c1-c1ccc(F)cc1` [CERIVASTATIN]: the IC50 result is on record as “Not Active”.

For the next data set, the target named is T1, Cytochrome P450 2A6 (Homo sapiens, UniProt P11509). Also: in other assays of this panel Not Active means under 50% inhibition at 10 µM.
T1 sequence (P11509 whole entry): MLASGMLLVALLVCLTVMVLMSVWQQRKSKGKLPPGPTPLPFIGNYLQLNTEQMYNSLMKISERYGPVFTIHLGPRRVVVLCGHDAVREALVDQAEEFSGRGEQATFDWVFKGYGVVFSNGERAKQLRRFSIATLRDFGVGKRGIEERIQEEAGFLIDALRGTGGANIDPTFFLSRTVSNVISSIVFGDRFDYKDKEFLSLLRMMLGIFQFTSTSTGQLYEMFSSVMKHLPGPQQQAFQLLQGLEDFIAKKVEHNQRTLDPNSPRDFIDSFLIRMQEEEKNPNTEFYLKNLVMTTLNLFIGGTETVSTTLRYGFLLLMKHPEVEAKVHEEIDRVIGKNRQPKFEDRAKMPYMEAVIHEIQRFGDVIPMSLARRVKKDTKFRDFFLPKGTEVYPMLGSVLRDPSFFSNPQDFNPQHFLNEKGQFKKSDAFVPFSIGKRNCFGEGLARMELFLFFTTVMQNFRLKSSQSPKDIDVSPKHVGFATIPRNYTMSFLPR
Assay: not given
The settings on record: bti-tn-5b1-4.
For the molecule `CC(C)(Oc1ccc(CCNC(=O)c2ccc(Cl)cc2)cc1)C(=O)O` [BEZAFIBRATE], the IC50 entry is recorded as “Not Active” and the Ki entry is reported as “Not Active”.
`CC(C)n1c(/C=C/C(O)CC(O)CC(=O)O)c(-c2ccc(F)cc2)c2ccccc21` (stereo not given) [FLUVASTATIN]: the IC50 result is listed as “Not Active” and the Ki entry is reported as “Not Active”.
As to `Cc1ccccc1N1CCN(CCc2nnc3n2CCCC3)CC1` [DAPIPRAZOLE], the IC50 result is “Not Active” and the Ki result is given as “Not Active”.
`COCc1c(C(C)C)nc(C(C)C)c(/C=C/[C@@H](O)C[C@@H](O)CC(=O)O)c1-c1ccc(F)cc1` [CERIVASTATIN]: the IC50 result was “Not Active” and the Ki result is “Not Active”.

For a further data set, the target named is T2, Neuropeptide Y receptor type 2 (Homo sapiens, UniProt P49146). Also: in other assays of this panel Not Active means under 50% inhibition at 10 µM.
T2 sequence (P49146 whole entry): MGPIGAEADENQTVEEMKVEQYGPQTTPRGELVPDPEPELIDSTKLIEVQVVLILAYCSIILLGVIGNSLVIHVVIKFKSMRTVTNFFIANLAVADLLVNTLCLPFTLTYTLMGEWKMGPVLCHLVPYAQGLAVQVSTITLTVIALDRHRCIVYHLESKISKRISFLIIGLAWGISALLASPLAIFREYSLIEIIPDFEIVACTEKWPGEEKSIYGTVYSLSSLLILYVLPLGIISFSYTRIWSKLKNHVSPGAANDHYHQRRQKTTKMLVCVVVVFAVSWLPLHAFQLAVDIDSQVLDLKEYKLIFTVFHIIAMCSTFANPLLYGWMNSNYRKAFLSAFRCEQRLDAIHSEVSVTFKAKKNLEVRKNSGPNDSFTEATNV
Assay: not given
The format is cell membranes, Membrane. Conditions: kan-ts.
With `CC(C)(Oc1ccc(CCNC(=O)c2ccc(Cl)cc2)cc1)C(=O)O` [BEZAFIBRATE], the IC50 entry is “Not Active”.
With `CC(C)n1c(/C=C/C(O)CC(O)CC(=O)O)c(-c2ccc(F)cc2)c2ccccc21` (stereo not given) [FLUVASTATIN], the IC50 result is on record as “Not Active”.
In the case of `Cc1ccccc1N1CCN(CCc2nnc3n2CCCC3)CC1` [DAPIPRAZOLE], the IC50 result was “Not Active”.
Turning to `COCc1c(C(C)C)nc(C(C)C)c(/C=C/[C@@H](O)C[C@@H](O)CC(=O)O)c1-c1ccc(F)cc1` [CERIVASTATIN], the IC50 entry was “Not Active”.

The target in another data set is Acetylcholinesterase (Homo sapiens, UniProt P22303). Description: DRUGMATRIX: Acetylcholinesterase enzyme inhibition (substrate: acetylthiocholine). The data set is classed as cell-based, HEK293. The settings on record: hek293; Not Active = under 50% inhibition at 10 µM.
Sequence of Acetylcholinesterase (P22303 whole entry): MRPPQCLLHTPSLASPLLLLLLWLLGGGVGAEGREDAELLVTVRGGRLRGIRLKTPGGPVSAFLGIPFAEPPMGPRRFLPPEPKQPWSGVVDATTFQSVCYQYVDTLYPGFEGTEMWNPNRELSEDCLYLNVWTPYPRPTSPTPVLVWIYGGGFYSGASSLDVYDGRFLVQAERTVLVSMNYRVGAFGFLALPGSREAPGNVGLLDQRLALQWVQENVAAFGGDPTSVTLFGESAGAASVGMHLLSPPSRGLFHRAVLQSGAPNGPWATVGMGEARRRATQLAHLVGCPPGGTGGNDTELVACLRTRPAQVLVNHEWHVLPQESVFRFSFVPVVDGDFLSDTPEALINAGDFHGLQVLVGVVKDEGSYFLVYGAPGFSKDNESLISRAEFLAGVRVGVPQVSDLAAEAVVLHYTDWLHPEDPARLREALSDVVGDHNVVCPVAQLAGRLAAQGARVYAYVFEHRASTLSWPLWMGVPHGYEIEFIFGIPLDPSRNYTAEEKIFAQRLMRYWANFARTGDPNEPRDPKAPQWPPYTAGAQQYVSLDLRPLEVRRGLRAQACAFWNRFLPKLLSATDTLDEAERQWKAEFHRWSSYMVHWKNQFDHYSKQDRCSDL
Consider `CC(C)(Oc1ccc(CCNC(=O)c2ccc(Cl)cc2)cc1)C(=O)O` [BEZAFIBRATE], for which the IC50 result is given as “Not Active”.
`CC(C)n1c(/C=C/C(O)CC(O)CC(=O)O)c(-c2ccc(F)cc2)c2ccccc21` (stereo not given) [FLUVASTATIN]: the IC50 entry is listed as “Not Active”.
As to `Cc1ccccc1N1CCN(CCc2nnc3n2CCCC3)CC1` [DAPIPRAZOLE], the IC50 entry was “Not Active”.
Consider `COCc1c(C(C)C)nc(C(C)C)c(/C=C/[C@@H](O)C[C@@H](O)CC(=O)O)c1-c1ccc(F)cc1` [CERIVASTATIN], for which the IC50 entry was “Not Active”.

The target of another data set is Cytochrome P450 3A4 (Homo sapiens, UniProt P08684). Also: in other assays of this panel Not Active means under 50% inhibition at 10 µM.
Sequence of Cytochrome P450 3A4 (P08684 whole entry): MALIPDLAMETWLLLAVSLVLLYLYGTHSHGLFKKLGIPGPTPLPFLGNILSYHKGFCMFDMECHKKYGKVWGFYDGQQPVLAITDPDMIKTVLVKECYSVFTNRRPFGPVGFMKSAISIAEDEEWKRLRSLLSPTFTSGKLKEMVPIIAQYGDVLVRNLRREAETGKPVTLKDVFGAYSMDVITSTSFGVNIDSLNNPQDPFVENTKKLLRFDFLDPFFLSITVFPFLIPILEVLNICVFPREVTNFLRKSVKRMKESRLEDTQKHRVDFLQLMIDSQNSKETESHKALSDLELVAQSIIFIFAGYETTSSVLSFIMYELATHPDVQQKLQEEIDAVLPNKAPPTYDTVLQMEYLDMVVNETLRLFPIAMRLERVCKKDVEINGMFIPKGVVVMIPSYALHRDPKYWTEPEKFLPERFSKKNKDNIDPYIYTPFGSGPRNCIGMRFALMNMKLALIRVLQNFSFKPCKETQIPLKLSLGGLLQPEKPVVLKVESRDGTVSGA
Assay: not given
The settings on record: bti-tn-5b1-4.
Take `CC(C)(Oc1ccc(CCNC(=O)c2ccc(Cl)cc2)cc1)C(=O)O` [BEZAFIBRATE]: the IC50 entry is reported as “Not Active” and the Ki result is given as “Not Active”.
Consider `CC(C)n1c(/C=C/C(O)CC(O)CC(=O)O)c(-c2ccc(F)cc2)c2ccccc21` (stereo not given) [FLUVASTATIN], for which the IC50 result is reported as “Not Active” and the Ki result was “Not Active”.
Consider `Cc1ccccc1N1CCN(CCc2nnc3n2CCCC3)CC1` [DAPIPRAZOLE], for which the IC50 result is on record as “Not Active” and the Ki result is “Not Active”.
On to `COCc1c(C(C)C)nc(C(C)C)c(/C=C/[C@@H](O)C[C@@H](O)CC(=O)O)c1-c1ccc(F)cc1` [CERIVASTATIN], for which the IC50 result is listed as “Not Active” and the Ki entry is recorded as “Not Active”.

In another data set the target is Voltage-gated inwardly rectifying potassium channel KCNH2 (Homo sapiens, UniProt Q12809). Also: in other assays of this panel Not Active means under 50% inhibition at 10 µM.
Sequence of Voltage-gated inwardly rectifying potassium channel KCNH2 (Q12809 whole entry): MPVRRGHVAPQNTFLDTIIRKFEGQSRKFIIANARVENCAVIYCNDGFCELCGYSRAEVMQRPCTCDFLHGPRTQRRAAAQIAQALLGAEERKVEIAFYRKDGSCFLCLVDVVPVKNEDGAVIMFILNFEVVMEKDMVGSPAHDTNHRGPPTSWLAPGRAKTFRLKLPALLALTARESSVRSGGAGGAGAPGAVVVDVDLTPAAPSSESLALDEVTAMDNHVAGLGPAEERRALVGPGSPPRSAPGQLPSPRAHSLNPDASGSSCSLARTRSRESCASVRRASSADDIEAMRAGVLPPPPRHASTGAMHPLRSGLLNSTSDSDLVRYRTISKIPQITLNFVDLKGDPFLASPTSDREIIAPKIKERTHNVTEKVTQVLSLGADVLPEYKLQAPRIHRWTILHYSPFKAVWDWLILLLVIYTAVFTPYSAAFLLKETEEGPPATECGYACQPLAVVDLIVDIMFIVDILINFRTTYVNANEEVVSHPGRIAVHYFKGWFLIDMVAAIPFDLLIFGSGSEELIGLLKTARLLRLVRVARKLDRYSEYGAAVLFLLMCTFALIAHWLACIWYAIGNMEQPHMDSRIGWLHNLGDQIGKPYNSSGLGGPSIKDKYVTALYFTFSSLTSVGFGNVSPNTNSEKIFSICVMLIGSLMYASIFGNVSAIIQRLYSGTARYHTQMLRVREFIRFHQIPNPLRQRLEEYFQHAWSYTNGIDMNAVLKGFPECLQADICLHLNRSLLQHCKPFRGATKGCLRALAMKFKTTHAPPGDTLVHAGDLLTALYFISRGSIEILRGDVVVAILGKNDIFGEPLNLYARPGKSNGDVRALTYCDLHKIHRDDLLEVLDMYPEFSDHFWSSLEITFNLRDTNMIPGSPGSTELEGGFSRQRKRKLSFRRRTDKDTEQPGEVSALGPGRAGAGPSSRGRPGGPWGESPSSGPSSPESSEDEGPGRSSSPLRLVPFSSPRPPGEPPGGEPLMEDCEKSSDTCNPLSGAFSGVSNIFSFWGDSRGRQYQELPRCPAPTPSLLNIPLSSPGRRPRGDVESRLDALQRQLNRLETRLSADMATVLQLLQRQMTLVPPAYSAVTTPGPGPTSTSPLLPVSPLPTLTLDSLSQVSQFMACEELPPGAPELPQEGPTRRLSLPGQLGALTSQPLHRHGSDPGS
Assay: not given
Conditions: hek293.
In the case of `CC(C)(Oc1ccc(CCNC(=O)c2ccc(Cl)cc2)cc1)C(=O)O` [BEZAFIBRATE], the IC50 result was “Not Active” and the Ki result was “Not Active”.
As to `CC(C)n1c(/C=C/C(O)CC(O)CC(=O)O)c(-c2ccc(F)cc2)c2ccccc21` (stereo not given) [FLUVASTATIN], the IC50 result is listed as “Not Active” and the Ki result is given as “Not Active”.
Consider `Cc1ccccc1N1CCN(CCc2nnc3n2CCCC3)CC1` [DAPIPRAZOLE], for which the IC50 result is recorded as “Not Active” and the Ki entry is listed as “Not Active”.
`COCc1c(C(C)C)nc(C(C)C)c(/C=C/[C@@H](O)C[C@@H](O)CC(=O)O)c1-c1ccc(F)cc1` [CERIVASTATIN]: the IC50 entry was “Not Active” and the Ki result is on record as “Not Active”.

The next data set deals with T3, Thromboxane-A synthase (Homo sapiens, UniProt P24557).
T3 sequence (P24557 whole entry): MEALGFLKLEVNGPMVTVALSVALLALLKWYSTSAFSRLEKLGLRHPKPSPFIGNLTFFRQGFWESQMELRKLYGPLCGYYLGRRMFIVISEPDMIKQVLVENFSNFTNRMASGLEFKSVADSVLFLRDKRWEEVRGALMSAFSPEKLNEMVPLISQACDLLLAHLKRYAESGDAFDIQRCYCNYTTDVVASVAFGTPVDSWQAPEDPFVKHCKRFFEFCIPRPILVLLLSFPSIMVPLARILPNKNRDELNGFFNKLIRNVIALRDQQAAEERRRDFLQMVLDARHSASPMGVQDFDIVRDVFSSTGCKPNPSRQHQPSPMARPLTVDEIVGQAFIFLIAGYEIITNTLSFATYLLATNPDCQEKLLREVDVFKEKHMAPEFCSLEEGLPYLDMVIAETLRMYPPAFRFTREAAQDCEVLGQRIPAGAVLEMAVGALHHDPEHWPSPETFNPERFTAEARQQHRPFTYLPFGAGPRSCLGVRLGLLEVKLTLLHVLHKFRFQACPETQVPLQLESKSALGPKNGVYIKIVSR
In words: biochemical. The data set is classed as tissue-based, Platelet. The settings on record: platelet.
For `CC(C)(Oc1ccc(CCNC(=O)c2ccc(Cl)cc2)cc1)C(=O)O` [BEZAFIBRATE], the IC50 entry was “Not Active”.
Still for that read-out and setting: with `CC(C)n1c(/C=C/C(O)CC(O)CC(=O)O)c(-c2ccc(F)cc2)c2ccccc21` (stereo not given) [FLUVASTATIN] the entry was “Not Active”.
On to `Cc1ccccc1N1CCN(CCc2nnc3n2CCCC3)CC1` [DAPIPRAZOLE], for which the IC50 entry is recorded as “Not Active”.
Regarding `COCc1c(C(C)C)nc(C(C)C)c(/C=C/[C@@H](O)C[C@@H](O)CC(=O)O)c1-c1ccc(F)cc1` [CERIVASTATIN], the IC50 entry is recorded as “Not Active”.

For a further data set, the target named is Cytochrome P450 2C19 (Homo sapiens, UniProt P33261). Also: in other assays of this panel Not Active means under 50% inhibition at 10 µM.
Sequence of Cytochrome P450 2C19 (P33261 whole entry): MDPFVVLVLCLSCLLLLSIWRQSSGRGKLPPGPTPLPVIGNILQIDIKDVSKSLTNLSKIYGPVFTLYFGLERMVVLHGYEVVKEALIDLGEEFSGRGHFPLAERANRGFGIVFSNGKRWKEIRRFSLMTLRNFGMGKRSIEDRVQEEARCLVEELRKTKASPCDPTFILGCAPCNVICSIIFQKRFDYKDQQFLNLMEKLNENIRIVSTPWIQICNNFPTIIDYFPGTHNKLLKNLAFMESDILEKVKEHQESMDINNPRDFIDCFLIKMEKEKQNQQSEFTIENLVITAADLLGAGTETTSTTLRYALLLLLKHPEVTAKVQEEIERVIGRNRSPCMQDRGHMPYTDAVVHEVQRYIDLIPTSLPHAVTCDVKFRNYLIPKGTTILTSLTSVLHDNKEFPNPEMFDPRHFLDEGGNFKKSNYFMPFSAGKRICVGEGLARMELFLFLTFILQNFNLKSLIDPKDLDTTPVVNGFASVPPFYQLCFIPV
Assay: not given
Conditions: bti-tn-5b1-4.
Turning to `CC(C)(Oc1ccc(CCNC(=O)c2ccc(Cl)cc2)cc1)C(=O)O` [BEZAFIBRATE], the IC50 entry was “Not Active” and the Ki result was “Not Active”.
Regarding `CC(C)n1c(/C=C/C(O)CC(O)CC(=O)O)c(-c2ccc(F)cc2)c2ccccc21` (stereo not given) [FLUVASTATIN], the IC50 entry is “Not Active” and the Ki result is “Not Active”.
On to `Cc1ccccc1N1CCN(CCc2nnc3n2CCCC3)CC1` [DAPIPRAZOLE], for which the IC50 result is recorded as “Not Active” and the Ki result is given as “Not Active”.
In the case of `COCc1c(C(C)C)nc(C(C)C)c(/C=C/[C@@H](O)C[C@@H](O)CC(=O)O)c1-c1ccc(F)cc1` [CERIVASTATIN], the IC50 entry was “Not Active” and the Ki result is recorded as “Not Active”.

Another data set deals with T4, Cytochrome P450 1A2 (Homo sapiens, UniProt P05177).
T4 sequence (P05177 whole entry): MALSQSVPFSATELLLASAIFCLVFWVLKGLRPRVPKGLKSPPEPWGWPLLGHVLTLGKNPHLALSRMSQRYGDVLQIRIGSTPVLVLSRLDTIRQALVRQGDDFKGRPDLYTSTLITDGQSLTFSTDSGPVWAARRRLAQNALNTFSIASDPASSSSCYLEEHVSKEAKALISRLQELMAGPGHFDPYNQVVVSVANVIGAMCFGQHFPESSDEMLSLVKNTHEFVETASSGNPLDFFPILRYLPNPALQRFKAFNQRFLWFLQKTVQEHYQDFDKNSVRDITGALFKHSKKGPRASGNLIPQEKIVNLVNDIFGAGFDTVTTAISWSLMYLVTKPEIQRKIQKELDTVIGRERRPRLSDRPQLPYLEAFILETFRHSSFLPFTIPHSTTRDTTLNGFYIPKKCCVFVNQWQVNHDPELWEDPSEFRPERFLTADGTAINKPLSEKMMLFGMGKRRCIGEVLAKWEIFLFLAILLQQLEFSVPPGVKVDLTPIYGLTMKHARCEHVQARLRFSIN
Assay: not given
Conditions: bti-tn-5b1-4.
With `CC(C)(Oc1ccc(CCNC(=O)c2ccc(Cl)cc2)cc1)C(=O)O` [BEZAFIBRATE], the IC50 result was “Not Active” and the Ki entry is “Not Active”.
For `CC(C)n1c(/C=C/C(O)CC(O)CC(=O)O)c(-c2ccc(F)cc2)c2ccccc21` (stereo not given) [FLUVASTATIN], the IC50 entry is reported as “Not Active” and the Ki entry is given as “Not Active”.
With `Cc1ccccc1N1CCN(CCc2nnc3n2CCCC3)CC1` [DAPIPRAZOLE], the IC50 result is on record as “Not Active” and the Ki result was “Not Active”.
`COCc1c(C(C)C)nc(C(C)C)c(/C=C/[C@@H](O)C[C@@H](O)CC(=O)O)c1-c1ccc(F)cc1` [CERIVASTATIN]: the IC50 result is recorded as “Not Active” and the Ki entry is recorded as “Not Active”.

A further data set has as its target Carbonic anhydrase 2 (Homo sapiens, UniProt P00918). Description: DRUGMATRIX: Carbonic Anhydrase II enzyme inhibition (substrate: 4-Nitrophenyl acetate (4-NPA)). The data set is classed as tissue-based, Erythrocyte. Conditions: erythrocyte; Not Active = under 50% inhibition at 10 µM.
Take `CC(C)(Oc1ccc(CCNC(=O)c2ccc(Cl)cc2)cc1)C(=O)O` [BEZAFIBRATE]: the IC50 result is given as “Not Active”.
The same measure, in the same setting: then `CC(C)n1c(/C=C/C(O)CC(O)CC(=O)O)c(-c2ccc(F)cc2)c2ccccc21` (stereo not given) [FLUVASTATIN], with “Not Active”.
With `Cc1ccccc1N1CCN(CCc2nnc3n2CCCC3)CC1` [DAPIPRAZOLE], the IC50 result is “Not Active”.
Consider `COCc1c(C(C)C)nc(C(C)C)c(/C=C/[C@@H](O)C[C@@H](O)CC(=O)O)c1-c1ccc(F)cc1` [CERIVASTATIN], for which the IC50 result is on record as “Not Active”.
